# Laboratory results: paper PMC4128046, “Effect of a toggle switch mutation in TM6 of the human adenosine A3 receptor on Gi protein-dependent signalling and Gi-independent receptor internalization” (British Journal of Pharmacology, 2014)
# How the values were obtained:
# Assay type in all cases: cell-based
# A3-YFP = target: T1, A3-YFP (Homo sapiens, UniProt P0DMS8); assay: CRE-SPAP gene transcription assay, A3-YFP; conditions: A3-YFP cells; for agonist-mediated inhibition of SPAP production after PTx pre-incubation: PTx 100 ng·mL−1 overnight, 3 μM FSK; for Emax: read-out: Maximum response (% inhibition of 10 μM FSK), CRE-SPAP assay
# T1 construct: cDNA encoding the full length human A3 receptor; expressed in transfected cells
# T1 sequence (P0DMS8 1-318): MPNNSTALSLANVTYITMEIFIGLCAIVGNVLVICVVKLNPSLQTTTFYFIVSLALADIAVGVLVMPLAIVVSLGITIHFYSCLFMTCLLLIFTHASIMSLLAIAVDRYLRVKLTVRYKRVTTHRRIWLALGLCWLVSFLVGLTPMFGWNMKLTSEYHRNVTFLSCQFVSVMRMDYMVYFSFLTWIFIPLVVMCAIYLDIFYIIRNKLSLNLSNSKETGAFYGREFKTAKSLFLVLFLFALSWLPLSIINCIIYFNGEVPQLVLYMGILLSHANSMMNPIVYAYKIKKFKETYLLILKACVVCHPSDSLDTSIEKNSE
# Experimental: One day before analysis, normal growth medium was removed from the cells and replaced with serum-free medium (DMEM/F12 containing 2 mM L-glutamine). Where applicable, PTx (100 ng·mL^−1) was added at this stage. On the day of the assay, the medium was removed and replaced with fresh serum-free medium containing the required concentration of the agonist, and cells were incubated for 1 h at 37°C/5% CO2. After 1 h, the required concentration of forskolin (FSK) was added, and cells were incubated for a further 5 h at 37°C/5% CO2. Following the 5 h incubation, all medium was removed from the cells, 40 μL of fresh serum-free medium was added to each well and cells incubated for a further 1 h at 37°C/5% CO2. The plates were then incubated at 65°C for 30 min, to destroy any endogenous alkaline phosphatases.
# A basal and FSK control was included in each separate concentration-response CRE-SPAP gene transcription assay and cAMP accumulation assay to allow the responses in each cell line to be expressed as an inhibition of FSK-stimulated SPAP production.
# [1] = target: T2, A3 W243F-vYc/β-arrestin2-vYnL (Homo sapiens, UniProt P0DMS8, W243F); assay: BiFC of receptor with β-arrestin2 (automated imaging), A3 W243F-vYc; conditions: A3 W243F-vYc/β-arrestin2-vYnL cells; for Maximal BiFC (%): percentage of 10 μM NECA in the cell line
# T2 construct: cDNA encoding the full length human A3 receptor; expressed in transfected cells; host or cells: CHO-K1 stably expressing β-arrestin2-vYnL, stably co-transfected with A3 W243F-vYc
# T2 sequence (P0DMS8 whole entry W243F): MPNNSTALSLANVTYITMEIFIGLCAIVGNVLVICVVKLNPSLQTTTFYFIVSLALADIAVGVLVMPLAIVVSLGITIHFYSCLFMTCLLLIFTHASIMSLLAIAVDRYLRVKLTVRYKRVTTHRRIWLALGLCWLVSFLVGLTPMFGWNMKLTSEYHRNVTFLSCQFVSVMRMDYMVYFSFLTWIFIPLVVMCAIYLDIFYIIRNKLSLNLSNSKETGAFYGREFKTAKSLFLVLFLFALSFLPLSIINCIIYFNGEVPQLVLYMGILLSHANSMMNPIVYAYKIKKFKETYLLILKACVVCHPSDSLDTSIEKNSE
# T2 sequence (P32121 whole entry partner): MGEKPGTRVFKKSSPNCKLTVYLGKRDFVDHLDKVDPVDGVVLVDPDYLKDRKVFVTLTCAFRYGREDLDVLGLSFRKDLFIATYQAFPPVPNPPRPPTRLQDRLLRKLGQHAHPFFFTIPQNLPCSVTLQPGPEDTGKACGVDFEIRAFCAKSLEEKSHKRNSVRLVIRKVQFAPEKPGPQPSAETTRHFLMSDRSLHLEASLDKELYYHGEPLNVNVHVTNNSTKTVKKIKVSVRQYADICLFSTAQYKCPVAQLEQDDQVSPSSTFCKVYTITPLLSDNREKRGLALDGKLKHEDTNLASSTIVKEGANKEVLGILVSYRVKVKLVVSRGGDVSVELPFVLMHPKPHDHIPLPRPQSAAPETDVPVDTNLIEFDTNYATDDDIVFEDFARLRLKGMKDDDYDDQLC
# SNAP-A3 W243F = target: T3, SNAP-A3 W243F (Homo sapiens, UniProt P0DMS8, W243F); assay: Confocal imaging of SNAP-tagged receptor internalization, SNAP-A3 W243F; conditions: SNAP-A3 W243F transiently expressed in CHO CRE-SPAP cells, BG-AF488 label, 10 μM agonist
# T3 construct: the methionine start signal was removed from cDNA encoding the full length A3; expressed in transfected cells; host or cells: CHO CRE-SPAP, transient (Fugene HD)
# T3 sequence (P0DMS8 2-318 W243F limits assumed): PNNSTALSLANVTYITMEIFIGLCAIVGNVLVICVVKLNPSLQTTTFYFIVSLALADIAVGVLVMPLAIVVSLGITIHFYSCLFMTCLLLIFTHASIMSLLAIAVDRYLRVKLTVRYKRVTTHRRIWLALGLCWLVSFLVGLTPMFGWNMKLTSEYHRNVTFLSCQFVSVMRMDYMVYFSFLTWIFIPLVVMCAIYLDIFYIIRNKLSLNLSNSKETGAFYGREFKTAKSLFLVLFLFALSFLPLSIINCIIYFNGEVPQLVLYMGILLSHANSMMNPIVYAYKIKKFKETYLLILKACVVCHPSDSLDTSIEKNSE
# Experimental: CHO-K1 cells stably expressing a cAMP response element-secreted placental alkaline phosphatase (CRE-SPAP) reporter gene (CHO CRE-SPAP) under hygromycin selectivity and CHO-K1 cells stably expressing β-arrestin2-vYnL (CHO β-arrestin2-vYnL, a gift from Dr. N. Holliday, University of Nottingham, Nottingham, UK) were maintained in DMEM/F12 medium containing 10% FCS and 2 mM L-glutamine at 37°C in a humidified atmosphere of air/CO2 (19:1). […] Cell lines were initially screened for YFP or bimolecular fluorescence complementation (BiFC) fluorescence and CRE-SPAP cells lines were subsequently tested in the CRE-SPAP gene transcription assay. […]
# Live-cell BiFC imaging was performed on A3-vYc/β-arrestin2-vYnL and A3 W243F-vYc/β-arrestin2-vYnL cells grown in Nunc Labtek 8-well plates, and images obtained using a Zeiss 710 confocal microscope (Carl Zeiss GmbH, Jena, Germany) fitted with a 63× plan-Apochromat NA1.4 Ph3 oil-immersion objective. […] For both YFP, BiFC and BG-AF488 label, a 488 nm argon laser was used to excite the fluorophore and emission was detected using a BP505-530 filter. […] Images of A3-YFP and A3 W243F-YFP cells were taken with same pinhole diameter, laser power, gain and offset to allow comparison of YFP fluorescence. To obtain fluorescence intensity values, a region of interest was drawn around the plasma membrane of 10 cells per image in Zeiss AIM 4.2 software (Carl Zeiss GmbH).
"EC50 (A3-YFP; 5 h with FSK, read-out: pEC50 (CRE-SPAP assay) (converted)) [nM]","% maximal internalization vs. 10 μM NECA at 2 h (BiFC) ([1]; 10 μM, 2 h) [%]","EC50 ([1]; 60 min, read-out: pEC50 (BiFC with β-arrestin2-vYnL) (converted)) [nM]",SMILES,agonist-mediated inhibition of SPAP production after PTx pre-incubation (A3-YFP),Emax (A3-YFP) [%],Maximal BiFC (%) ([1]; 60 min),internalization of SNAP-tagged receptor seen in confocal images (SNAP-A3 W243F),"SPAP production in the absence of FSK (Gs coupling) (A3-YFP; no FSK, with or without PTx)"
3.02,58.0 ± 5.8,10.7,"CCCCC#Cc1nc(NC)c2ncn([C@@H]3O[C@H](CO)[C@@H](O)[C@H]3O)c2n1 [HEMADO, 2-(1-hexynyl)-N-methyladenosine]",no HEMADO-mediated response was observed,73.2 ± 7.7,54.5 ± 6.1,did not result in any clear change in the localization,
,,,"CCNC(=O)[C@H]1O[C@@H](n2cnc3c(N)ncnc32)[C@H](O)[C@@H]1O [NECA, 5-(N-ethylcarboxamido)adenosine]",abolished,65.8 ± 8.2,100,retained the ability to cause internalization,no increase in SPAP production
